This note sets out measurements from patent US9708325B2, “Sulfonimidoylpurinone compounds and derivatives for the treatment and prophylaxis of virus infection” (Hoffmann-La Roche Inc., priority 2015, dated 2017).

A short description of series [1]: GSH adduct screening assay. Particulars: 20 μM, RLM and HLM, 60 minutes. In kind it is in vitro ADME, rat and human. Further details: key: No flag: No Flag: no GSH adduct formation observed when compared to control (DMSO). Here is the method:
The formation of reactive metabolites is an unwanted drug property because of the idiosyncratic clinical adverse effect. GSH adduct formation is used to evaluate the formation of reactive metabolites in vitro. Positive controls were Diclofenac, Troglitazone, Nefazodone and mGluR5. Solvent control was DMSO.
All compounds including positive and solvent control were incubated using a 96-deep-well plate (Eppendorf) at 20 μM (addition of 1 μL of 10 mM DMSO stock solution) in 450 μL of 0.1 M sodium phosphate buffer at pH 7.4 containing rat liver microsomes (RLM) and human liver microsomes (HLM). Microsomal protein concentration is 1 mg/mL. Pipetting was performed using a TECAN pipetting robot. The buffer was prepared at room temperature by combining 2.62 g NaH2PO4.1H2O and 14.43 g Na2HPO4.2H2O dissolved in H2O (Millipore, >18 MΩ) to a weight of 1000 g (pH 7.4). After 5 minutes of pre-incubation at 37° C. the reaction was started by adding 50 μL of buffer containing GSH (100 mM) and NADPH (20 mM). Fresh stock solutions of GSH and NADPH were prepared straight before each experiment. The final concentrations were […] for GSH and 1 mM for NADPH. After 60 minutes of incubation at 37° C. (shaking at 800 rpm) the reaction is quenched with 500 μL of cold acetonitrile and centrifuged at 5000×g at 25° C. for 11 minutes. Before LC-MS/MS analysis the supernatant was split to two fractions, 450 μL and 400 each followed by evaporation using a N2 stream at 35° C. to a volume of approximately […].
Sample clean-up and chromatography of analytes were performed on-line by a column-switching set-up of two HPLC columns. From each sample 50 μL were injected (Shimadzu SilHTC) and loaded with water containing 0.1% formic acid onto a trapping column (Waters Oasis HLB 2.1×10 mm, 25 μm) with a flow rate of 0.3 mL/min. After 1.5 min the trapped analytes were then flushed (included a change in flow direction on the trapping column) onto an analytical column (Waters Atlantis T3 2.1×100 mm, 3 μm) with a total flow of 0.2 mL/min starting with 95/5% water containing 0.1% formic acid/acetonitrile. The fraction of acetonitrile was increased to 20% acetonitrile between 2 and 2.5 minutes, to 70% at 10 minutes and to 98% at 11 minutes. After 12 minutes the analytical column was equilibrated to start conditions (5% acetonitrile). […] The total running time was 14 min per sample.
A triple quadrupole-linear ion trap mass spectrometer 4000 Qtrap equipped with an electrospray ionization source (Turbo V) was used, both from Applied Biosystems/MDS Sciex. Based on a published method of Dieckhaus et al. (2005) a precursor ion survey scan (PreIS) method was used to detect GSH-conjugates in negative ion mode. Briefly, as survey scan ions (400 to 900 amu within 2 seconds) are scanned for precursors of m/z 272 amu, the ion spray voltage was −4200 V, the source temperature 500° C., nitrogen was used as curtain and collision gas. If the parent molecule exceeds a molecular mass of 500 the scan range was changed to 500 amu to 1000 amu within 2 seconds. For signals in the survey scan exceeding 7500 cts (that was approximately 5 times of the background signal), enhanced resolution scan and enhanced product ion scan were triggered which allowed isotope determination and confirmation of a positive GSH adduct by the presence of diagnostic fragment ions. Further instrument settings were as following: Curtain gas: 30 psi, CAD gas: 10 psi Gas 1: 30 psi, Gas 2: 50 psi, declustering potential: −70 V, entrance potential: −10 V, collision energy: −24 V, and cell exit potential −15 V. Data acquisition was performed using Analyst 1.4.2, data analysis, i.e. sample control (solvent) comparisons were performed with Metabolite ID 1.3 (Applied Biosystems/MDS Sciex). (reference: Dieckhaus, C. M., Fernandez-Metzler, C. L., King, R., Krolikowski, P. H., and Baillie, T. A. (2005). Negative ion tandem mass spectrometry for the detection of glutathione conjugates. Chem Res Toxicol 18, 630-638).

The target in a further series is human TLR7 (Homo sapiens (Human), UniProt Q9NYK1). Description: HEK-Blue-hTLR7 cells assay (SEAP reporter). Particulars: 20 hrs, read-out: HEK-Blue-hTLR7 (EC50 (μM)). The series is classed as cell-based. In outline:
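HEK-Blue cells stably carrying human TLR7 and an NF-κB-driven SEAP reporter, preincubated 24 h, then exposed to serially diluted compound (1% DMSO final) for 20 h at 37 °C. Supernatant SEAP measured with QUANTI-Blue substrate, 2 h at 37 °C, absorbance read at 620–655 nm.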

A short description of another series: LYSA solubility. Particulars: for solubility thermodynamic: 0.05 M phosphate buffer, pH 6.5, aqueous buffer, thermodynamic from solid. The series is classed as physicochemical. Here is the method: LYSA solubility assay is used to determine the aqueous solubility of a compound. Samples were prepared in duplicate from 10 mM DMSO stock solution. […] After one night, the solutions were filtered using a microtiter filter plate. Then the filtrate and its 1/10 dilution were analyzed by HPLC-UV.

Structures are written as SMILES. ≈ marks a conversion by molar mass, not a printed value. Bounds are passed on as bounds.

As usually defined, the EC50 is the concentration at which the effect is half-maximal. In general, solubility (thermodynamic) refers to solubility found after equilibrating the solid with the medium.

Chain of human TLR7 (Q9NYK1 27-1049): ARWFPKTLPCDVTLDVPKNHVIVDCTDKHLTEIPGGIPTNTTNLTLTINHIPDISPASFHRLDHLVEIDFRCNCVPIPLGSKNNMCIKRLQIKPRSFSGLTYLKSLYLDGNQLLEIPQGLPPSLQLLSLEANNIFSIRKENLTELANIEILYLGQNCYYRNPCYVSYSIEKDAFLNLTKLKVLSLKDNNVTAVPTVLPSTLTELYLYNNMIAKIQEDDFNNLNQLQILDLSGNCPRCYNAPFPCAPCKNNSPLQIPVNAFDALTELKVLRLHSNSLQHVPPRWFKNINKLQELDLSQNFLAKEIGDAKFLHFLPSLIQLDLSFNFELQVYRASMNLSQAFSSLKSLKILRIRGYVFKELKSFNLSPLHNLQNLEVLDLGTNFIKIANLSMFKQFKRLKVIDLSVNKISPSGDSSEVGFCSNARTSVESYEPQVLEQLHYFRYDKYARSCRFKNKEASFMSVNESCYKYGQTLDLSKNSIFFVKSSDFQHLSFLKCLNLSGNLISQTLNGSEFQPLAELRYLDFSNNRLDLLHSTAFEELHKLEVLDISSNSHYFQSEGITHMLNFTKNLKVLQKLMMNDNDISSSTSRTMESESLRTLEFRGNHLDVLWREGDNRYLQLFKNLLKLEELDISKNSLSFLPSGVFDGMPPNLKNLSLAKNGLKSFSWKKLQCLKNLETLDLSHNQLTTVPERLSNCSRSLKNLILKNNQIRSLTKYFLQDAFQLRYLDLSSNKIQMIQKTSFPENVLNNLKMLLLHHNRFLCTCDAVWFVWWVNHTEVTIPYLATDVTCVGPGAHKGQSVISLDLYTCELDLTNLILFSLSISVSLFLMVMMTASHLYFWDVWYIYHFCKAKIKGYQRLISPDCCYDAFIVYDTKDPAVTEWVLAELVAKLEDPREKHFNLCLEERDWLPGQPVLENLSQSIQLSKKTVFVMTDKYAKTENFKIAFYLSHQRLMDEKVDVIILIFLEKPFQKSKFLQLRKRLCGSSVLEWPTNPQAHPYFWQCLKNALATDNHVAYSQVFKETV

With `CCCS(=N)(=O)c1nc(N)c2[nH]c(=O)n(Cc3ccc(Cl)cc3)c2n1` (stereo not shown) [Example 9, 6-Amino-9-[(4-chlorophenyl)methyl]-2-(propylsulfonimidoyl)-7H-purin-8-one], in series [1], the GSH results was “No flag”. In addition, at human TLR7, the EC50 was determined as 0.012 µM.
For `CCS(=N)(=O)c1nc(N)c2[nH]c(=O)n(Cc3ccc(C)cc3)c2n1` (single isomer, unassigned) [Example 71-A, 6-Amino-2-(ethylsulfonimidoyl)-9-(p-tolylmethyl)-7H-purin-8-one], in “LYSA solubility”, the solubility (thermodynamic) was found to be 13 µg/mL (≈ 37.5 µM). Also, the GSH results in series [1] is on record as “No flag”.
Turning to `CCCS(=N)(=O)c1nc(N)c2[nH]c(=O)n(Cc3ccccc3)c2n1` (single isomer, unassigned) [Example 4-B, 6-Amino-9-benzyl-2-(propylsulfonimidoyl)-7H-purin-8-one], the “LYSA” value in the series “LYSA solubility” (0.05 M phosphate buffer (pH 6.5)) was determined as 50 µg/mL. In addition, in series [1], the GSH results is recorded as “No flag”.
The compound `CCCS(=N)(=O)c1nc(N)c2[nH]c(=O)n(Cc3ccccc3)c2n1` (single isomer, unassigned) [Example 4-A, 6-Amino-9-benzyl-2-(propylsulfonimidoyl)-7H-purin-8-one] came in with a thermodynamic solubility in “LYSA solubility” of 56 µg/mL (≈ 162 µM). Also, the GSH results in series [1] is listed as “No flag”. Also, the EC50 at human TLR7 worked out at 0.067 µM.
In the same order, the values of `CCCS(=N)(=O)c1nc(N)c2[nH]c(=O)n(Cc3ccccc3)c2n1` (stereo not shown) [Example 4, 6-Amino-9-benzyl-2-(propylsulfonimidoyl)-7H-purin-8-one] are 21 µg/mL (≈ 60.6 µM), “No flag” and 0.065 µM.
`CCS(=N)(=O)c1nc(N)c2[nH]c(=O)n(Cc3ccc(Cl)cc3)c2n1` (single isomer, unassigned) [Example 70-B, 6-Amino-9-[(4-chlorophenyl)methyl]-2-(ethylsulfonimidoyl)-7H-purin-8-one] registered a solubility (thermodynamic) in the series “LYSA solubility” of 5 µg/mL (≈ 13.6 µM). The GSH results in series [1] is “No flag”.
Take `CCCS(=N)(=O)c1nc(N)c2[nH]c(=O)n(Cc3ccc(C)nc3)c2n1` (stereo not shown) [Example 34, 6-Amino-9-[(6-methyl-3-pyridyl)methyl]-2-(propylsulfonimidoyl)-7H-purin-8-one]: the GSH results in series [1] is listed as “No flag”. The EC50 at human TLR7 was found to be 0.03 µM.
`CCCS(=N)(=O)c1nc(N)c2[nH]c(=O)n(Cc3ccc(F)c(F)c3)c2n1` (stereo not shown) [Example 27, 6-Amino-9-(3,4-difluorophenylmethyl)-2-(propylsulfonimidoyl)-7H-purin-8-one] came in with a thermodynamic solubility in “LYSA solubility” of 7 µg/mL (≈ 18.3 µM). The GSH results in series [1] is on record as “No flag”. Also, the EC50 at human TLR7 came out at 0.036 µM.
With `CCCS(=N)(=O)c1nc(N)c2[nH]c(=O)n(Cc3ccc(C)cc3)c2n1` (single isomer, unassigned) [Example 29-A, 6-Amino-2-(propylsulfonimidoyl)-9-(p-tolylmethyl)-7H-purin-8-one], the thermodynamic solubility in “LYSA solubility” was 6 µg/mL (≈ 16.6 µM). Besides, in series [1], the GSH results was “No flag”.
In the case of `CCS(=N)(=O)c1nc(N)c2[nH]c(=O)n(Cc3ccc(Cl)cc3)c2n1` (single isomer, unassigned) [Example 70-A, 6-Amino-9-[(4-chlorophenyl)methyl]-2-(ethylsulfonimidoyl)-7H-purin-8-one], in series [1], the GSH results was “No flag”.
`CCCS(=N)(=O)c1nc(N)c2[nH]c(=O)n(Cc3ccc(C(=O)O)cc3)c2n1` (stereo not shown) [Example 39, 4-[[6-Amino-8-oxo-2-(propylsulfonimidoyl)-7H-purin-9-yl]methyl]benzoic acid]: in “LYSA solubility”, the thermodynamic solubility is more than 520 µg/mL. Further, in series [1], the GSH results is “No flag”. Also, the EC50 at human TLR7 amounted to 0.17 µM.
